Data published in patent US10800816B2 (Baxalta GmbH, priority 2012, dated 2020).
Where two headings read alike, the source gives them in different places. *1 amine or outer side, *2 acyl side, *3 side chain or, on linkers, in order; H or OH if unused. Where a SMILES comes first, the peptide text is derived from it. Bridges are numbered along the chain shown (N, C = ends). Side-chain parts run from the residue outwards. [ ]: non-standard residue; d: D form. The star is where a group is joined. X1 = CCCCCCCCCCCCCC(=O)NCCCOCCOCCOCCCN*; Suc = O=C(CCC(=O)[*:2])[*:1]; Tle = CC(C)(C)[C@H](N)C(=O)O; Hexanoyl = CCCCCC(=O)*; Aib = CC(C)(N)C(=O)O; Acm = CC(=O)NC*

Experiments:
TFPI [1] = assay: IC50 ELISA | Mean IC50 [nM]
TFPI [2] = assay: IC50 ELISA | Mean IC50 [nM]; remark: listed apart in the source
From the text: Table printed on a drawing sheet, FIGURE 78Z
(§1) Head of the field: IC50 ELISA | Mean IC50 [nM]
First copying reader's note: Continued table: the first body row (45.67) belongs to a compound on the preceding sheet, the last row probably continues on the next sheet, and cells with several values list single replicates.

TFPI [3] = assay: IC50 ELISA | Mean IC50 [nM]; remark: listed apart in the source
[4] = test system: Tissue Factor Pathway Inhibitor (TFPI); assay: IC50 ELISA | IC50 [nM]
From the text: Table printed on a drawing sheet, FIGURE 78E
(§2) Head of the field: IC50 ELISA | IC50 [nM]

[5] = test system: Tissue Factor Pathway Inhibitor (TFPI); assay: IC50 ELISA | IC50 [nM]; remark: listed apart in the source
From the text: Table printed on a drawing sheet, FIGURE 78Q
as §2

[6] = test system: Tissue Factor Pathway Inhibitor (TFPI); assay: IC50 ELISA | Mean IC50 [nM]
[7] = test system: Tissue Factor Pathway Inhibitor (TFPI); assay: IC50 ELISA | Mean IC50 [nM]; remark: listed apart in the source
[8] = test system: Tissue Factor Pathway Inhibitor (TFPI); assay: IC50 ELISA | Mean IC50 [nM]; remark: listed apart in the source
[9] = test system: Tissue Factor Pathway Inhibitor (TFPI); assay: IC50 ELISA | IC50 [nM]; remark: listed apart in the source
From the text: Table printed on a drawing sheet, FIGURE 78N
as §2

TFPI [10] = assay: Progress Curves of Inhibition of FXa | % Inhibit (2.5µM)
TFPI [11] = assay: as above; remark: listed apart in the source
Description: Head of the field: Progress Curves of Inhibition of FXa | % Inhibit (2.5µM)
“*” denotes negative controls.

[12] = test system: Tissue Factor Pathway Inhibitor (TFPI); assay: IC50 ELISA | Mean IC50 [nM]; remark: listed apart in the source
TFPI [13] = assay: IC50 ELISA | Mean IC50 [nM]; remark: listed apart in the source
[14] = test system: Tissue Factor Pathway Inhibitor (TFPI); assay: IC50 ELISA | IC50 [nM]; remark: listed apart in the source
From the text: Table printed on a drawing sheet, FIGURE 78S
as §2

[15] = test system: Tissue Factor Pathway Inhibitor (TFPI); assay: IC50 ELISA | Mean IC50 [nM]; remark: listed apart in the source
From the text: Table printed on a drawing sheet, FIGURE 78V
as §1

TFPI [16] = assay: Extrinsic Tenase Inhibition by TFPI | % Inhibit (2.5µM)
TFPI [17] = assay: Progress Curves of Inhibition of FXa | % Inhibit (2.5µM); remark: listed apart in the source
TFPI [18] = assay: Extrinsic Tenase Inhibition assay | % Inhibition @ 2.5µM

In the case of CCCCCCCCCCCCCC(=O)NCCCOCCOCCOCCCNC(=O)CCC(=O)NCCCC[C@H](NC(=O)[C@H](CC(C)C)NC(=O)[C@H](CCCCN)NC(=O)[C@H](C)NC(=O)C(C)(C)NC(=O)[C@H](CC(C)C)NC(=O)[C@H](CCCNC(=N)N)NC(=O)[C@H](CCC(=O)O)NC(=O)[C@H](Cc1ccccc1)NC(=O)[C@H](Cc1ccc(O)cc1)NC(=O)[C@@H](C)NC(=O)[C@H](CC(=O)O)NC(=O)[C@@H](NC(=O)[C@H](Cc1c[nH]cn1)NC(=O)[C@@H](NC(=O)[C@H](CSCNC(C)=O)NC(=O)[C@H]1CCCN1C(=O)[C@H](CCCCN)NC(=O)[C@H](CO)NC(=O)[C@H](CCC(N)=O)NC(=O)[C@H](Cc1ccccc1)NC(=O)CCCCC)C(C)C)C(C)(C)C)C(N)=O [JBT00002531, Hex-FQSKp-Cys(Acm)-VH-Tle-DaYFERL-Aib-AKLK(Ttds- Myr)--NH2] (Hexanoyl-FQSK[dP]C(Acm)VH[Tle]D[dA]YFERL[Aib]AKLK([Suc-X1])-NH2), the IC50 (TFPI [1]) is reported as 27.2 nM and the IC50 (TFPI [2]) is reported as 27 nM.

“Ac-FQSK-Nmg-NVFVTGYFERL-Aib-AKL-NH2 [JBT00001585]” gave an IC50 (TFPI [3]) of 15.1 nM.

With Ac-FQSKKNVFV-NH2 [JBT00002258] the IC50 [4] was > 5000 nM.

In the case of “Ac-FQSKpNVH-Tle-DGYFERL-Aib-A-Nmk-L-NH2 [JBT00002425]”, the IC50 [5] is reported as > 500 nM.

“Ac-FQSKpNVHVDGYFERL-Aib-AKLC(ME-120MA)-NH2 [JBT00002326]” was tested, and the IC50 [6] was 9.3 nM.

In the case of “Ac-FQSK-nma-NVHVDGYFERL-Aib-AKL-NH2 [JBT00002280]”, the IC50 [7] is reported as 4.6 nM.

“Ac-FQSKpNVHVDGYFERL-Egz-AKL-NH2 [JBT00002302]” showed an IC50 [8] of 2.7 nM.

With “Ac-FQSKpNVH-Nmv-DGYFERL-Aib-AKLC(NEM)-NH2 [JBT00002387]” the IC50 [9] was > 500 nM.

With Ac-KWFCGMRDMKGTMSCVWVKFRYDTS- [JBT0324] the “Progress Curves of Inhibition of FXa | % Inhibit ([…])” value (TFPI [10]) was 0%.

“Ac- KKVGSVTRWSMYGPIFIKFTWTLEQPVGWDH KK-NH2 (SEQ ID NO: 3056) (Ac-KKVGSVTRWSMYGPIFIKFTWTLEQPVGWDHKK-NH2) [JBT0176*]” was tested, and the “Progress Curves of Inhibition of FXa | % Inhibit ([…])” value (TFPI [11]) was 0%.

Work on “Ac-FQSKpNVH-Tle-DcY-Bta--Hcy-RL-Aib-AKL-NH2 [JBT00002500]” yielded an IC50 [12] of 5.26 nM.

Compound “(Ac-FQSKpNVHVDGYFERL-Aib-AKLC-NH2)2-M2PEG2000 [JBT00002523]” has an IC50 (TFPI [1]) of 1.03 nM.

“Ac-FQSK-Nmg-NVFVFGYFERLRAKL-NH2 [JBT00000500]” was tested, and the IC50 (TFPI [13]) was 93.4 nM.

For “Ac-FQSKpNVH-Tle-DaYFERL-Aib-A-Opc-L-NH2 [JBT00002447]”, the IC50 [14] was > 500 nM.

In the case of CC(=O)N[C@@H](Cc1ccccc1)C(=O)N[C@@H](CCC(N)=O)C(=O)N[C@@H](CO)C(=O)N[C@@H](CCCCN)C(=O)N1CCC[C@@H]1C(=O)N[C@@H](CC(N)=O)C(=O)N[C@H](C(=O)N[C@@H](Cc1c[nH]cn1)C(=O)N[C@H](C(=O)N[C@@H](CC(=O)O)C(=O)N[C@@H]1CSSC[C@@H](C(=O)N[C@@H](CCCNC(=N)N)C(=O)N[C@@H](CC(C)C)C(=O)NC(C)(C)C(=O)N[C@@H](C)C(=O)N[C@@H](CCCCN)C(=O)N[C@@H](CC(C)C)C(N)=O)NC(=O)[C@H](Cc2ccccc2)NC(=O)[C@H](Cc2ccc(O)cc2)NC1=O)C(C)(C)C)C(C)C [JBT00002495, Ac-FQSKpNVH-Tle-D[cYFC]RL-Aib-AKL-NH2] (Ac-FQSK[dP]NVH[Tle]D[dC]YFCRL[Aib]AKL-NH2; disulfide 11-14), the IC50 [15] is reported as 3.36 nM.

For “Ac-SGGRKHKHFLRSNGKPSRALSS-NH2 (SEQ [JBT0424]”, the “Extrinsic Tenase Inhibition by TFPI | % Inhibit ([…])” value (TFPI [16]) was 0% and the “Progress Curves of Inhibition of FXa | % Inhibit ([…])” value (TFPI [17]) was 1%.

“Ac-SRYKWFGMR[CDMKGC]TMSVWVKF-NH2 (SEQ ID NO: 1162) (Ac-SRYKWFGMRCDMKGCTMSVWVKF-NH2; disulfide 10-15; SMILES CSCC[C@H](NC(=O)CNC(=O)[C@H](Cc1ccccc1)NC(=O)[C@H](Cc1c[nH]c2ccccc12)NC(=O)[C@H](CCCCN)NC(=O)[C@H](Cc1ccc(O)cc1)NC(=O)[C@H](CCCNC(=N)N)NC(=O)[C@H](CO)NC(C)=O)C(=O)N[C@@H](CCCNC(=N)N)C(=O)N[C@H]1CSSC[C@@H](C(=O)N[C@H](C(=O)N[C@@H](CCSC)C(=O)N[C@@H](CO)C(=O)N[C@H](C(=O)N[C@@H](Cc2c[nH]c3ccccc23)C(=O)N[C@H](C(=O)N[C@@H](CCCCN)C(=O)N[C@@H](Cc2ccccc2)C(N)=O)C(C)C)C(C)C)[C@@H](C)O)NC(=O)CNC(=O)[C@H](CCCCN)NC(=O)[C@H](CCSC)NC(=O)[C@H](CC(=O)O)NC1=O) [JBT0470]” was tested, and the “Extrinsic Tenase Inhibition assay | % Inhibition @ […]” value (TFPI [18]) was 2%.
